Structures can show the parent of a compound that is named as a salt.

In general, inhibition refers to the relative decrease from the control value, in per cent. As usually defined, the melting point is the temperature, or range, at which the solid turns liquid.

Data set [1] has as its target recombinant arginase from Leishmania mexicana (LmARG) (Leishmania mexicana, UniProt Q6TUJ5). As to the kind of experiment: Inhibition of recombinant LmARG, colorimetric urea assay. It counts as biochemical. The conditions noted are these: for inhibition at 200 µM: read-out: % Inhibition LmARG [200 μM]; for Inhibition behavior of LmARG: I50 curves; for IC50: recombinant LmARG, read-out: I50 (concentration that inhibits 50% enzyme activity), LmARG. The method, then:
(§1) The activity of the recombinant arginases was measured in a colorimetric assay with some modifications. Briefly, the enzyme (2 µg) was previously activated with 1 mM MnCl2, 100 mM Tris-HCl, pH 8 during 15 min at 37 °C. Thereafter, 50 mM L-arginine was added, and the reaction was stopped after 10 min using 30 µL of an acid mixture (H2SO4, H3PO4 and H2O [1:3:7]), and 20 µL of 245 mM of α-isonitrosopropiophenone (dissolved in ethanol). Samples were heated in a thermocycler at 95 °C for 1 h. The urea in the samples was measured at 550 nm in a Synergy H1 Hybrid Multi-Mode Microplate Reader (BioTek).
(§2) The fifty molecules with the highest docking score were selected for inhibition studies that were made under the conditions mentioned above, adding the respective compound (dissolved in DMSO) at a concentration of 200 µM, keeping a final 10% DMSO concentration. The concentration that inhibits 50% of the enzyme activity (I50) was determined through curves at different compound concentrations. The I50 was obtained fitting the curves to the equation reported by Téllez-Valencia, et al., 2002 [25].

Data set [2] deals with Murine macrophages J774.2. The arrangement: method as in Matadamas-Martínez et al., 2019 [28]. The conditions noted are these: J774.2 murine macrophages; previous study under the same conditions; ref Matadamas-Martínez et al., 2019 [28]; cited from earlier work.
Data set [3] relates to Promastigotes of L. mexicana (MNYC/BZ/62/M379). As to the kind of experiment: Biological activity against promastigotes, resazurin. Format: cell-based, Leishmania mexicana. Conditions: 48 h. The method, then:
Promastigotes of L. mexicana (MNYC/BZ/62/M379 reference strain) were grown in Schneider’s medium supplemented with fetal bovine serum 10% (v/v), ampicillin (100 U/mL)/streptomycin (100 µg/mL). Parasites were collected at log phase to assess the compounds and 5 × 10^5 promastigotes were seeded in a 96-wells plate. Compounds were previously dissolved in dimethyl sulfoxide (DMSO) up to a concentration of 1 mg/mL. Thereafter, serial dilutions were made with culture medium from 100 µg/mL to 0.8 µg/mL and then they were added to the wells by triplicates. Parasites non treated and treated with Glucantime, Amphotericin B and Miltefosine were included as […]. Parasites were incubated at 26 °C during 48 h and resazurin 2.5 mM was added at the end into each well. Afterwards, fluorescence intensity was measured with excitation/emission 535/590 nm in a spectrofluorometer (Infinite 200, Tecan Group Ltd., Mannedorf, Switzerland). Finally, half maximal inhibitory concentration (IC50) was determined through a Probit analysis. The assays were made by triplicate in 3 independent experiments.
In general terms: The colour change of resazurin is a common sign of viable cells or microbes.

For data set [4], the system named is amastigote of L. mexicana. Nature of the data set: Biological activity against intracellular amastigotes in J774.2 macrophages, resazurin. Format: cell-based, Leishmania mexicana. The conditions noted are these: intracellular L. mexicana amastigotes in J774.2 macrophages, 48 h. The method, then: Biological activity of the benzimidazole derivatives was also evaluated against the amastigote of L. mexicana. For this, 5 × 10^4 murine macrophages J774.2 (ATCC® TIB-67) per well were grown in a plate of 96 wells with RPMI medium at […], 5% CO2 during 24 h. The cells were infected with promastigotes in log phase in a 10:1 proportion (parasite: macrophage) and they were incubated at 37 °C, 5% CO2 during 24–48 h. A wash with RPMI medium to remove the not-infected promastigotes was made. Compounds were added in a serial dilution from 100 µg to 0.8 µg/mL in triplicate and were incubated at 37 °C, 5% CO2 for 48 h. Glucantime, Amphotericin B and Miltefosine were used as reference drugs. Then, the cells were lysed with a non-complemented Schneider’s medium lysis solution with SDS 0.01%, after incubating for 20 min the lysis solution was removed. Afterwards, Schneider medium was added incubating at 26 °C during four days at room temperature to differentiate intracellular amastigotes from free amastigotes. Thereafter, 20 µL of resazurin 2.5 mM was added to each well and incubated during 3 h. Fluorescence intensity and IC50 were measured as described for promastigotes. The assays were made by triplicate in 3 independent experiments.

Data set [5] relates to L. amazonensis promastigotes. Further details: method as in PMID 33198198. The conditions noted are these: cited from earlier work.
The subject of data set [6] is promastigotes. The conditions noted are these: cited from earlier work.
A short description of data set [7]: Cytotoxicity assay, resazurin. It counts as cell-based. Conditions: mouse, J774.2 murine macrophages, maximum concentration evaluated. The method, then: Murine macrophages J774.2 (ATCC® TIB-67) (5 × 10^4 cells/well) were grown in plates of 96 wells for 24 h at 37 °C in 5% CO2. Thereafter, compounds were added in serial diluted concentrations (100 to 0.8 µg/mL) and they were incubated during 24 h. The cellular vitality was evaluated using resazurin, adding 20 µL to each well at 2.5 mM incubating 4 h. Finally, the cytotoxic concentration (CC50) was determined through a Probit analysis. The assays were made by triplicate in 3 independent experiments. CC50 values of Amphotericin B, Miltefosine and Glucantime were taken from a previous study performed under the same conditions by our research group.

For data set [8], the target named is T1, human arginase 1 (HsARG) (Homo sapiens, UniProt P05089).
T1 construct: made in house; host or cells: E. coli BL21(DE3)pLysS
T1 sequence (P05089 1-322): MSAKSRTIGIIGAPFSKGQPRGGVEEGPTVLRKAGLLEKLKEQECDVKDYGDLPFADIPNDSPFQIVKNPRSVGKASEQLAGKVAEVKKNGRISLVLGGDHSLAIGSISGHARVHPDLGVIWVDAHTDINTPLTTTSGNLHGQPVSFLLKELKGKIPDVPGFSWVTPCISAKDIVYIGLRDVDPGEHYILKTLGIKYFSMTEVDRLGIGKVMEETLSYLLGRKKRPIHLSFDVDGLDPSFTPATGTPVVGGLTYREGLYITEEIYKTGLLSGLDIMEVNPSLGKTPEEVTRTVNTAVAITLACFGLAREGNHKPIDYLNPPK
Nature of the data set: Inhibition of recombinant human arginase 1, colorimetric urea assay. Format: biochemical. Conditions: for Selectivity LmARG versus HsARG: comparison of inhibition of LmARG and HsARG; for Inhibition of recombinant HsARG: highest concentration possible to be tested, 1 mM. The method, then: as §1, §2

`CC(=O)c1nc2cc(Cl)ccc2n1C` [Compound 4]: the inhibition at 200 µM in data set [1] worked out at 56%.

Take `COC(=O)c1cc2c(cc1Cl)nc(S)n2C` [Compound 16]: the inhibition at 200 µM in data set [1] amounted to 25%.

As for `CNC(=O)c1nc2ccc(Cl)cc2n1C` [Compound 5], the inhibition at 200 µM in [1] stood at 56%.

On to `CC(=O)c1nc2ccc(Cl)cc2n1C` [Compound 10], for which the inhibition at 200 µM in [1] was determined as 33%.

In turn, `COC(=O)c1cc2c(cc1Cl)nc(SCCNC(=N)N)n2C` [Compound 7, Methyl 5-chloro-2-((2-guanidinoethyl)thio)-1-methyl-1H-benzimidazole-6-carboxylate] registered a melting point of 172.9 to 173.4 °C. Also, the inhibition at 200 µM in [1] was determined as 40%.

For the compound `C[C@@H]1[C@H](O)[C@@H](C)/C=C/C=C/C=C/C=C/C=C/C=C/C=C/[C@H](O[C@@H]2O[C@H](C)[C@@H](O)[C@H](N)[C@@H]2O)C[C@@H]2O[C@](O)(C[C@@H](O)C[C@@H](O)[C@H](O)CC[C@@H](O)C[C@@H](O)CC(=O)O[C@H]1C)C[C@H](O)[C@H]2C(=O)O` [Amphotericin B], the CC50 in data set [2] is 7.4 µM. Further, the results for the IC50 in data set [3] (Leishmania mexicana) and in data set [4] (Leishmania mexicana) were 0.89 µM and 1.3 µM, respectively.

In the case of `COC(=O)Nc1nc2ccc(Cl)cc2n1C` [Compound 8, Methyl (6-chloro-1-methyl-1H-benzimidazol-2-yl)carbamate], in data set [1], the inhibition at 200 µM amounted to 40%.

`COC(=O)Nc1nc2ccc(Cl)cc2n1C` (hydrate or solvate) [Compound 8, Methyl (6-chloro-1-methyl-1H-benzimidazol-2-yl)carbamate] yielded a melting point of 191.3 to 192.4 °C.

Turning to `O=C(/C=C/c1ccc(O)c(O)c1)Nc1ccccc1` [CAPA, caffeic acid phenylamide], the IC50 in data set [5] was 82.6 µM.

Take `CNc1ccc(Cl)cc1N` [Compound 11]: the inhibition at 200 µM in data set [1] was 33%.

As to `CCCCCCCCCCCCCCCCOP(=O)([O-])OCC[N+](C)(C)C` [Miltefosine], the CC50 in data set [2] is 141 µM. In addition, the IC50 in data set [3] (Leishmania mexicana) amounted to 8.1 µM; in [4] (Leishmania mexicana), 8.6 µM.

Turning to `CSc1nc2cc(N3CCNCC3)c(Cl)cc2[nH]1` [Compound 6, 6-Chloro-2-(methylthio)-5-(piperazin-1-yl)-1H-benzimidazole], the inhibition at 200 µM in data set [1] is 46%.

Regarding `COC(=O)c1cc2nc(S)[nH]c2cc1Cl` [Compound 15], the inhibition at 200 µM in data set [1] was determined as 25%.

In the case of `CSc1nc2cc(N3CCNCC3)c(Cl)cc2[nH]1` (as salt: HCl) [Compound 6, 6-Chloro-2-(methylthio)-5-(piperazin-1-yl)-1H-benzimidazole], the melting point was in the range of 235 to 237 °C.

`COC(=O)c1cc2c(cc1Cl)nc(SCC=NNC(N)=O)n2C` [Compound 3, Methyl 2-((2-(2-carbamoylhydrazineylidene)ethyl)thio)-5-chloro-1-methyl-1H-benzimidazole-6-carboxylate] gave a melting point of 196.7 to 197.1 °C. Further, in data set [1], the inhibition at 200 µM came out at 60%.

For the compound meglumine antimoniate [Glucantime], the CC50 in [2] was > 273 µM. Further, the results for the IC50 in [3] and in data set [4] were 101 µM and 35 µM, respectively.

For the compound `N=C(NO)NCC[C@H](N)C(=O)O` [nor-NOHA], the EC50 in promastigotes result in data set [6] is “millimolar order”.

In the case of `CCCSc1ccc(NC)c(N)c1` [Compound 13], the inhibition at 200 µM in [1] was determined as 27%.

With `CNc1cc(Cl)ccc1N` [Compound 12], in [1], the inhibition at 200 µM came to 30%.

With `CCCSc1ccc2c(c1)nc(NC(=O)OC)n2C` [Compound 9, Methyl (1-methyl-5-(propylthio)-1H-benzimidazol-2-yl)carbamate], the melting point is 120.5 to 122.1 °C. Besides, in data set [1], the inhibition at 200 µM came to 36%.

Regarding `NC(=NCCC[C@H](N)C(=O)O)NO` [NOHA], in [6], the EC50 in promastigotes entry is reported as “millimolar order”.

Turning to `COC(=O)Nc1nc2cc(Cl)ccc2n1C` [Compound 1, Methyl (5-chloro-1-methyl-1H-benzimidazol-2-yl)carbamate], in [1], the “Inhibition behavior of LmARG” value is on record as “cooperative behavior”, the inhibition at 200 µM came to 100% and the IC50 came out at 52 µM. In [3] (Leishmania mexicana), the IC50 was determined as 64 µM. The CC50 at 24 h in data set [7] was > 417 µM. Also, the IC50 in [4] (Leishmania mexicana) came to 32 µM. Besides, in [8], the “Selectivity LmARG versus HsARG” value is listed as “selective to the enzyme from parasite” and the “Inhibition of recombinant HsARG” value was “none of the compounds inhibit completely the enzyme”.

On to `CSc1nc2cc(C(N)=O)c(Cl)cc2[nH]1` [Compound 2, 6-Chloro-2-(methylthio)-1H-benzimidazole-5-carboxamide], for which, in data set [1], the “Inhibition behavior of LmARG” value is “cooperative behavior”, the inhibition at 200 µM was determined as 100% and the IC50 came out at 82 µM. The IC50 in data set [3] (Leishmania mexicana) was 132 µM. The CC50 at 24 h in [7] (J774.2 macrophages) is > 414 µM. The same compound returned an IC50 in [4] (Leishmania mexicana) of 101 µM. In addition, in data set [8], the “Selectivity LmARG versus HsARG” value is recorded as “selective to the enzyme from parasite” and the “Inhibition of recombinant HsARG” value is “none of the compounds inhibit completely the enzyme”.

These data come from PMC8705706, “Benzimidazole Derivatives as New and Selective Inhibitors of Arginase from Leishmania mexicana with Biological Activity against Promastigotes and Amastigotes” (International Journal of Molecular Sciences, 2021).
